In test [1] the test system is T cells isolated from mouse spleen. The test can be described thus: T cell proliferation inhibition, CFSE flow cytometry, CD3/CD28 activation. As to conditions: CD3/CD28 activated, 3 days. Format: cell-based. As for the experimental part: To verify the T cell proliferation inhibitory effect of the compounds according to the present invention, the following experiment was performed based on flow cytometry analysis using carboxyfluorescein diacetate succinimidyl ester (CFSE), a fluorescent dye that binds to intracellular molecules via covalent bonds.
Spleens were extracted from 7-week-old C57BL/6 mice, ground, and then separated into single cells using a strainer (40 μm pore size, SPL). Red blood cells were removed using ACK (Ammonium-Chloride-Potassium) lysis buffer to isolate white blood cells.
Finally, using a MACS Magnetic Stand and LS column, T cells were isolated from the spleen.
The T cells isolated from the spleen were resuspended in 1 mL of free medium (RPMI-1640+200 U/mL penicillin+200 μg/mL streptomycin), and 0.3 μL of CFSE (10 mM) was added. The mixture was incubated at 37° C. for 5 minutes.
Free medium (10 mL) was added to stop the reaction, and the cells were centrifuged to obtain the cell pellet.
RPMI 1640 medium containing 10% FBS, 100 U/mL penicillin, 100 μg/mL streptomycin, and resuspended the cells. The cells were then seeded into a 96-well plate at a density of 2×10^5 cells per well and activated with CD3 and CD28 antibodies (0.5 μg/mL each) to activate T cells.
The compound diluted in DMSO was added at concentrations of 10 nM, 100 nM, 1 μM, 10 μM, 30 μM, and 50 μM, with three wells per concentration, and cultured at 37° C. and 5% CO2 for three days. The cells were then analyzed using a FACS Canto instrument.
The proliferation inhibition rate (%) was calculated using the following formula: […]

In test [2] the test system is HCT-116 colon cancer cell lines. Description: Invasion Assay using Matrigel, HCT-116. It counts as cell-based, human. As to conditions: HCT-116, Matrigel invasion, 24 hours treatment. The protocol: To evaluate the metastasis inhibitory efficacy of the compounds of the present invention on HCT-116 colon cancer cell lines, an Invasion Assay using Matrigel was performed to assess the cells' invasion ability.
First, Matrigel was thawed on ice in RPMI-1640 medium without FBS, then diluted with DMEM at a ratio of 1:20.
The diluted Matrigel mixture was applied to the upper chamber at 100 μl per well, and 750 μl of RPMI-1640 without FBS was added to the lower chamber.
The plates were then incubated at 37° C. for 1 hour to allow the Matrigel to solidify.
After coating, the Matrigel mixture in the upper chamber was removed using a pipette, and the chamber was washed with RPMI without FBS.
Human-derived colorectal cancer cell line HCT-116, obtained from the Korean Cell Bank, was cultured in RPMI-1640 medium containing 10% FBS.
Following stabilization, the cells were harvested using Trypsin-EDTA treatment, centrifuged at 1,200 rpm for 3 minutes, the supernatant was removed, and the cells were resuspended in the same medium, the medium in the lower chamber was replaced with 750 μl of RPMI-1640 supplemented with 10% FBS, and the cells were seeded into the upper chamber at a density of 5×10^4 cells/well.
The cells were cultured for 24 hours after attachment, and then the compounds according to the present invention (G078, G085, G086, G088, G089, PBK-2024-010, PBK-2025-010, PBK-2025-013, PBK-2025-016) and the control substance DMSO were diluted and added to the upper chamber after removing the medium.
Additionally, the medium in the lower chamber was replaced with fresh RPMI-1640 containing FBS, and the culture was continued.
After an additional 24 hours, the medium was removed, and 1 ml of methanol was added for 10 minutes to fix the cells.
Subsequently, 1 ml of Hematoxylin was added and reacted for 5 minutes, followed by 1 ml of Eosin, which was reacted for 30 seconds. The sample was then washed with distilled water (DW).
After staining was complete, any remaining cells in the upper chamber were removed. Finally, the infiltrated cells were observed under a microscope, photographed, and the degree of infiltration was analyzed.

On to “12-(4-hydroxypiperazin-1-yl)dodecyl-N-(6-aminopurazin-2-yl)carboxamide [Compound 10]”, for which the “Proliferation inhibition rate (%)” value in test [1] (compound 10 nM), in test [1] (compound 100 nM), in test [1] (compound 1 μM), in test [1] (compound 10 μM), in test [1] (compound 30 μM) and in test [1] (compound 50 μM) was 100.00% in each case. The “number of infiltrated cells” value in test [2] was “reduction in the number of infiltrated cells”.

As for `Nc1ncccc1C(=O)NCCCCCCCCCCCCN1CCNCC1` [Compound 5, 2-Amino-N-(12-(piperazin-1-yl)dodecyl)-nicotinamide], the “number of infiltrated cells” value in test [2] is reported as “reduction in the number of infiltrated cells”.

On to `O=C(NCCCCCCCCCCCCN1CCN2CCCC2C1)c1cccnc1` (centres unmarked) [Compound 23, N-(12-(hexahydropyrrolo[1,2-a]pyrazin-2 (1H)-yl)dodecyl)nicotinamide], for which, in test [2], the “number of infiltrated cells” value is on record as “reduction in the number of infiltrated cells”.

As to `CC(C)(C)OC(=O)N[C@H]1CCN(CCCCCCCCCCCCNC(=O)c2cccnc2N)C1` [Compound 49, tert-Butyl(S)-(1-(12-(2-aminonicotinamido)dodecyl)pyrrolidin-3-yl)carbamate], the “number of infiltrated cells” value in test [2] is recorded as “reduction in the number of infiltrated cells”.

For `Nc1ncccc1C(=O)NCCCCCCCCCCCCN1CC(F)C1` [Compound 52, 2-Amino-N-(12-(3-fluoroazetidin-1-yl)dodecyl)nicotinamide], the “number of infiltrated cells” value in test [2] is “reduction in the number of infiltrated cells”.

(Values after US20260184700A1, “PDK1 REGULATORY COMPOUND AND COMPOSITION CONTAINING THE SAME” (PROVIBIO CO., LTD., priority 2024, published 2026).)
